The source made the active and inactive calls.
Key:
[1] = THP-1 cell cytotoxicity, dose response, cytotoxicity control for non-replicating M. tuberculosis project (AID 489025); type: functional
cells [2] = type: functional
[3] = target: Fructose-bisphosphate aldolase (Mycobacterium tuberculosis, UniProt P9WQA3); assay: Fluorescence-based biochemical high throughput dose response assay for inhibitors of the fructose-bisphosphate aldolase (FBA) of M. tuberculosis.; type: functional
[4] = intracellular Trypanosoma cruzi inhibitors in host cells – cell-based, plate reader, cherry-pick samples, set 3, dose response (AID 651818); type: functional;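 note: compounds incubated with infected cells for about four days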
Paired box protein Pax-8 = Paired box protein Pax-8 (Homo sapiens, UniProt Q06710); assay: PAX8 transcriptional activity inhibition in RMG-I – RMG-I cells, luciferase, cherry-pick, dose response (AID 687027); type: functional, cell-based;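 note: luciferase reporter driven by Pax8 target thyroperoxidase promoter measured by SteadyGlo luminescence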
[5] = OVCAR-3 cell viability loss – plate reader, dry powder samples, PAX8 inhibitor project, dose response (AID 743044); type: functional, cell-based
[6] = IGROV1 cell killing – plate reader, dry powder samples, PAX8 inhibitor project, dose response (AID 743043); type: functional, cell-based; conditions: IGROV-1
[7] = OVCAR8 cell viability loss – plate reader, dry powder samples, PAX8 project, dose response (AID 743197); type: functional, cell-based; conditions: OVCAR-8
[8] = viability loss in HEK293T cells – cell-based, cherry-picks, cytotoxicity control for HIV Vif inhibitor project, dose response (AID 652208); type: functional
[9] = general cell-killing toxicity readout – plate reader, dry powder samples, cytotoxicity control for PAX8 inhibitor project, dose response (AID 743021); type: functional, cell-based
INS1 = assay: INS-1E survival protection against cytokine death – cell-based, luminescence, retest, dose response (AID 449756); type: functional; conditions: Rattus norvegicus;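 note: cell death triggered by IL-1 beta plus TNF-alpha plus IFN-gamma mixture; protective hits raise ATP signal compared with cytokine alone wells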
Protein Wnt-3a = Protein Wnt-3a (Mus musculus, UniProt P27467); assay: antagonism of Wnt3a pathway luciferase reporter – Wnt-LIGHT cells, luminescence, selectivity assay for Gli-SUFU antagonist project, dose response (AID 651570); type: functional; conditions: read-out: IC50_Mean;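 note: Wnt-LIGHT reporter cells stimulated with conditioned medium from Wnt3a-producing cells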
Galanin receptor type 3 = Galanin receptor type 3 (Homo sapiens, UniProt O60755); assay: Fluorescence-based cell-based primary high throughput dose response assay to identify antagonists of the Galanin Receptor 3 (GalR3).; type: functional
cells [10] = type: functional, cell-based; conditions: HEK-CNG
[11] = target: T1, COUP transcription factor 2 (Homo sapiens, UniProt P24468); assay: Luminescence-based cell-based high throughput dose response assay to identify inhibitors of COUP-TFII (NR2F2).; type: functional;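 note: HEK293 cells transiently cotransfected with COUP-TFII expression vector and reporter; luciferase reporter luminescence driven by COUP-TFII from the pX2-168 reporter plasmid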
T1 sequence (P24468 whole entry): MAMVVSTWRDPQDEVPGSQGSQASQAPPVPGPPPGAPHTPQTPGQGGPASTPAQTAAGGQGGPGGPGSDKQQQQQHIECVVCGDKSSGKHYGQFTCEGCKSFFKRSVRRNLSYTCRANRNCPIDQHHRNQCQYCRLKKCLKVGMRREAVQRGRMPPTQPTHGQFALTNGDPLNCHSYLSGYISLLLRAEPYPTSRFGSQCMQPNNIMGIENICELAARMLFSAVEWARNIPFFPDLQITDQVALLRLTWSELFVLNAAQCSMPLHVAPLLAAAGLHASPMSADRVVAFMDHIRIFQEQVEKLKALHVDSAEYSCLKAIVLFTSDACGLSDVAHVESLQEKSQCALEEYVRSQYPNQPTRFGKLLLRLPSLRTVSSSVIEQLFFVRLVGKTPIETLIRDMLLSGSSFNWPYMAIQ

[12] = potency of ADAM10 substrate cleavage blockers – biochemical, QFRET, dose response (AID 743254);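 note: ADAM10 enzyme with the DM2 quenched FRET peptide as substrate; EDANS fluorescence gain as the protease cuts the substrate; inhibitor potency against ADAM10 proteolytic activity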
[13] = target: T2, Disintegrin and metalloproteinase domain-containing protein 17 (Homo sapiens, UniProt P78536); assay: inhibition of ADAM17 substrate cleavage – biochemical, quenched FRET substrate, counter-screen for ADAM10 exosite inhibitor project, dose response (AID 743253)
[14] = viability of PTEN-deleted HCT116 cells – cell-based, HCT116 PTEN knockout, dose response (AID 1047); type: functional;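 note: HCT116 colon tumor cells with PTEN knocked out; cells exposed to compound for 60 hours before readout; potency for loss of cell viability measured by luminescence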
[15] = viability of HCT116 lacking mutant beta-catenin – cell-based, human colon tumor, dose response (AID 1045); type: functional;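 note: HCT116 colon tumor cells with beta catenin knocked out; cells exposed to compound for 60 hours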
[16] = inhibition of ADAM10 peptide cleavage – biochemical, FRET peptide substrate, recombinant human ADAM10, selectivity assay for ADAM17 exosite inhibitor project, dose response (AID 743259);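 note: ADAM10 enzyme cleaving a FRET peptide substrate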
[17] = tested on: Streptococcus sp. 'group A'; assay: Streptococcus pyogenes SK(-)GAS viability under kanamycin – luminescence, BacTiterGlo, confirmation, counter-screen for streptokinase expression inhibitor project, dose response (AID 1900); type: functional, organism-based
BJ [18] = assay: BJ-TERT fibroblast viability loss – cell-based, RAS-independent, luminescence, dose response (AID 1933); type: functional; conditions: Homo sapiens
BJ [19] = assay: cells; type: functional, cell-based; conditions: Homo sapiens
[20] = microbe, parasite or virus in culture; type: functional; conditions: Mycobacterium tuberculosis
BJ [21] = assay: BJ-TERT-LT-ST fibroblast viability loss – cell-based, RAS-independent, luminescence, dose response (AID 1935); type: functional; conditions: Homo sapiens;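 note: BJ fibroblasts immortalized with TERT plus LT and ST oncogenes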
[22] = DRD fibroblast viability loss – cell-based, non-viral oncogenic, luminescence, dose response (AID 1934); type: functional; conditions: Homo sapiens
Streptococcus = assay: GAS UMAA2166 growth inhibition – luminescence, BacTiterGlo, counter-screen for streptokinase expression inhibitor project, dose response (AID 1915); type: functional, organism-based;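 note: potency for reduction of bacterial viability or growth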
BJ [23] = assay: growth inhibition of engineered Ras-driven BJ cells – cell-based, alamar blue fluorescence, cherrypicked samples, dose response (AID 2631); type: functional; conditions: Homo sapiens;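 note: confirmatory dose-response assay in RAS-dependent BJ fibroblasts engineered with TERT, LT and ST, with cytotoxicity read by fluorescence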
H9c2 = assay: cells; type: functional, cell-based; conditions: Rattus norvegicus, H9c2, Myocardium;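 note: confirmatory concentration-response retest of ultra-high-throughput screening hits for modulation of myocardial damage; cell death induced by hydrogen peroxide oxidative stress; compound pretreatment for 60 min then peroxide exposure for 2 h; potency is for protecting the cells against peroxide damage rather than for killing them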
[24] = target: T3, Heat shock factor protein 1 (Mus musculus, UniProt P38532); assay: enhancement of HSF1-driven luciferase signal – cell-based, NIH3T3, luminescence, dose retest, confirmation (AID 435004); type: functional;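 note: stress induced by proteasome inhibitor MG132 added 30 min after compound; luciferase reporter driven by HSF1 response element in NIH3T3 cells; actives raise luminescence as potentiators of the MG132 stress response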
T3 sequence (P38532 whole entry): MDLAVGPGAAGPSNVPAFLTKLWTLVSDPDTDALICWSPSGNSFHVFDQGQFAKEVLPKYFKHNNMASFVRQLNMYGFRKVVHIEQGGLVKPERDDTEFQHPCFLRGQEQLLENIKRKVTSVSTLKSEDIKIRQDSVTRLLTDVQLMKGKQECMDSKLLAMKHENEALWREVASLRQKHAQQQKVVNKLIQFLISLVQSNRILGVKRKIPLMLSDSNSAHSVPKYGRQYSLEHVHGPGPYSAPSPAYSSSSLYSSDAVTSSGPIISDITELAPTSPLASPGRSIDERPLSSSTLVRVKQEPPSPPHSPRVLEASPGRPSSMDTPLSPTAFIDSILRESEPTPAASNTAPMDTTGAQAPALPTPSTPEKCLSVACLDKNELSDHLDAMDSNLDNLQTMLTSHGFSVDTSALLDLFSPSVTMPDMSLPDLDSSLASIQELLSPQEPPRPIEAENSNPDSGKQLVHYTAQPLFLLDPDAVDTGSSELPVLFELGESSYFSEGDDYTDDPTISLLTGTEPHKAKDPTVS

[25] = target: T2, Disintegrin and metalloproteinase domain-containing protein 17; assay: exosite inhibitors of ADAM17, dose response, biochemical (AID 743260)

T2 sequence (P78536 whole entry, the tested form may be a part): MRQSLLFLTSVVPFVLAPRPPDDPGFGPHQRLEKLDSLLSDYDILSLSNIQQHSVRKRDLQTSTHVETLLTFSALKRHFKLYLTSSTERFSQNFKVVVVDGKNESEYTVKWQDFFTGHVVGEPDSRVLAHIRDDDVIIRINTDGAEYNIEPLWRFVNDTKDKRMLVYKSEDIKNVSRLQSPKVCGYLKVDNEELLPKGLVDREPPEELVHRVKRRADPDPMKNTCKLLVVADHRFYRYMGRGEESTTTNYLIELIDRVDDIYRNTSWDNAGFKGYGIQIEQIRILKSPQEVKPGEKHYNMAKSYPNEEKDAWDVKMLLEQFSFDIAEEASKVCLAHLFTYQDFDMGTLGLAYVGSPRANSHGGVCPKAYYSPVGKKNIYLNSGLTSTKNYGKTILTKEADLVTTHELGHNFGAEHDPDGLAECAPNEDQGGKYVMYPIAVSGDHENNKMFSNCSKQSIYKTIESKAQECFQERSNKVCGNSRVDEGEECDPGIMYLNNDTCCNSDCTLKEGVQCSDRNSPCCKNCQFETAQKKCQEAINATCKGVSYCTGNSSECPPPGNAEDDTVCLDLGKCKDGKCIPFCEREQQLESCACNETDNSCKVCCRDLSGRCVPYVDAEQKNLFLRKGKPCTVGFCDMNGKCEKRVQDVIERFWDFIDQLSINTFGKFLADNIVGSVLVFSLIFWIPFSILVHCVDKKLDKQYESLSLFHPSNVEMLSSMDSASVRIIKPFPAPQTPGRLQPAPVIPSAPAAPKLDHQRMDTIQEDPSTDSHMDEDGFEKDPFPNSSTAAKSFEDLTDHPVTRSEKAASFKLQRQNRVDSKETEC
Sequence of Paired box protein Pax-8 (Q06710 whole entry): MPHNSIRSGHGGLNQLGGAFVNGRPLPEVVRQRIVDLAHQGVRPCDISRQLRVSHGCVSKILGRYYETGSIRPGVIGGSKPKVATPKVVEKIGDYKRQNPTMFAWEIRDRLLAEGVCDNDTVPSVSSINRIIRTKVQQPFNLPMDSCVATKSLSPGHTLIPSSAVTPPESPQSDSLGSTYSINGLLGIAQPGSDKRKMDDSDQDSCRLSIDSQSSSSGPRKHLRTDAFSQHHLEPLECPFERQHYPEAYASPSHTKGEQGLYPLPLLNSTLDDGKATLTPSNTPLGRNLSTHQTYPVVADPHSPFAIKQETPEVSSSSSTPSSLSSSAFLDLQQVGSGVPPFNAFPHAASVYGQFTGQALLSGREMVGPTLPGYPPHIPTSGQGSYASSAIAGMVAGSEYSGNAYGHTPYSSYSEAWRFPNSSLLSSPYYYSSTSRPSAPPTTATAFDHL
Sequence of Galanin receptor type 3 (O60755 whole entry): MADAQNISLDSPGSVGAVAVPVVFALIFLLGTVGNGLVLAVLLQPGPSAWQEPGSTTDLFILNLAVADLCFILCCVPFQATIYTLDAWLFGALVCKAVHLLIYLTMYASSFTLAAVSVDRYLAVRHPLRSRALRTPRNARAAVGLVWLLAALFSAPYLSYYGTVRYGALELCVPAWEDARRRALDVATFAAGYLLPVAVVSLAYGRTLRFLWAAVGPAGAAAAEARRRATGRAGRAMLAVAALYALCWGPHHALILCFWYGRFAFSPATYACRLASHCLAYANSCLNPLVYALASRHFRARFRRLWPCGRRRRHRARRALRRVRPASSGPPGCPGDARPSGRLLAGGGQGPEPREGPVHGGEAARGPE
Sequence of Protein Wnt-3a (P27467 whole entry): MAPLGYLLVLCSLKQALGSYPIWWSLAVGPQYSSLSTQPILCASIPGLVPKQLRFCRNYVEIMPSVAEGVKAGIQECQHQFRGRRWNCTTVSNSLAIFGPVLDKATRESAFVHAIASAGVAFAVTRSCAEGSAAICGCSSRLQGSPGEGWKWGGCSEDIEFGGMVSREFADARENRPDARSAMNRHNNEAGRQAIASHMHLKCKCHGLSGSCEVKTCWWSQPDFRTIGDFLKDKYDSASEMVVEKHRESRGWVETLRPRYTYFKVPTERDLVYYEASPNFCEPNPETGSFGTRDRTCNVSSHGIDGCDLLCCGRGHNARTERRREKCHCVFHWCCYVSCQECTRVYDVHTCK
Sequence of Fructose-bisphosphate aldolase (P9WQA3 whole entry): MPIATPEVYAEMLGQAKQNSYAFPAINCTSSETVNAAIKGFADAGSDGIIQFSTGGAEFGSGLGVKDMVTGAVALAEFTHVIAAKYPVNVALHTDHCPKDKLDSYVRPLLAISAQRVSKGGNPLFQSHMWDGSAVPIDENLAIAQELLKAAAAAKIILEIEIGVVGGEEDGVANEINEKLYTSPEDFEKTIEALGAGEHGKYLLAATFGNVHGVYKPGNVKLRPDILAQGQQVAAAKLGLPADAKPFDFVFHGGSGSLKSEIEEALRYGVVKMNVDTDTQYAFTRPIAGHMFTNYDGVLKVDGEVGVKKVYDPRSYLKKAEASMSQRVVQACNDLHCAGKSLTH

Structure (SMILES): COc1ccc2nc(N=C(N)NC(=O)C(C)(C)C)nc(C)c2c1
- CC50 [1]: > 40 µM (active)
- IC50 (cells [2]): 9.61 µM (active)
- IC50 [3]: 1.89 µM (active)

Structure (SMILES): C[C@@H]1CN([C@@H](C)CO)C(=O)c2cc(NC(=O)Nc3ccc(C(F)(F)F)cc3)ccc2O[C@H]1CN(C)C(=O)Nc1ccc(C(F)(F)F)cc1
- AC50 [4]: 3.41 µM (active)
- AC50 (Paired box protein Pax-8): 5.97 µM (active)
- AC50 [5]: 42.1 µM (active)
- AC50 [6]: 52.1 µM (active)
- AC50 [7]: 61.2 µM (active)

Structure (SMILES): C[C@@H]1CCCCO[C@H](CN(C)Cc2ccc(Cl)c(Cl)c2)[C@@H](C)CN([C@@H](C)CO)C(=O)c2cc(NC(=O)Cc3ccccc3)ccc2O1
- AC50 (Paired box protein Pax-8): 11.2 µM (active)
- AC50 [5]: 33.4 µM (active)
- AC50 [6]: 50.5 µM (active)
- AC50 [7]: > 70 µM (inactive)

Structure (SMILES): O=C(/C=C/c1ccccc1)Nc1nc[nH]n1
- AC50 [8]: 23.6 µM (active)

Structure (SMILES): C[C@@H]1CN([C@@H](C)CO)C(=O)Cc2cc(NC(=O)Cc3ccccc3)ccc2O[C@H]1CN(C)Cc1ccc(-c2ccccc2)cc1
- AC50 (Paired box protein Pax-8): 9.31 µM (active)
- AC50 [9]: 45.7 µM (active)

Structure (SMILES): NC(=O)c1c(-c2ccc(Cl)cc2Cl)csc1NC(=O)Cc1ccccc1
- AC50 (INS1): 2.86 µM (active)
- IC50 (Protein Wnt-3a): 1.91 µM (active)
- IC50 (Galanin receptor type 3): 0.513 µM (active)
- EC50 (cells [10]): > 29.9 µM (inactive)
- IC50 [11]: 5.15 µM (active)

Structure (SMILES): COc1ccc(NC(S)=Nc2cc(-c3ccccc3)[nH]n2)cc1Cl
- IC50 [12]: > 69.5 µM (inactive)
- IC50 [13]: > 69.5 µM (inactive)

Structure (SMILES): COc1cc(-c2nc(-c3ccc4c(c3)-c3ccccc3S4(=O)=O)c(-c3ccccc3)[nH]2)cc(OC)c1O
- EC50 [14]: 14 µM (active)
- EC50 [15]: 19.8 µM (active)
- IC50 [16]: > 69.5 µM (inactive)

Structure (SMILES): CC(C)C[C@H](NC(=O)c1nc[nH]c1C(=O)Nc1ccc(CNC(=O)OC(C)(C)C)cc1)C(=O)OC(C)(C)C
- IC50 [13]: > 69.5 µM (inactive)

Structure (SMILES): Cc1nc(N)nc(N)c1CCCc1ccc(Cl)c(Cl)c1
- EC50 [17]: 1.03 µM (active)
- EC50 (BJ [18]): 17 µM (active)
- EC50 (BJ [19]): 1.36 µM (active)
- CC50 [20]: 4.07 µM (active)
- EC50 (BJ [21]): > 150 µM (not active)
- EC50 [22]: 3.05 µM (active)
- EC50 (Streptococcus): 4.01 µM (active)
- EC50 (BJ [23]): > 133 µM (inactive)

Structure (SMILES): Cc1noc(C)c1Cn1nc(C(=O)O)c2ccccc2c1=O
- IC50 (H9c2): 18.6 µM (active)
- IC50 (Galanin receptor type 3): > 29.9 µM (inactive)
- EC50 (cells [10]): > 29.9 µM (inactive)

Structure (SMILES): COc1cc(-c2nc(-c3ccccc3)c(-c3ccc4c(c3)-c3ccccc3S4(=O)=O)[nH]2)cc(OC)c1O
- EC50 [24]: 101 µM (active)
- IC50 [25]: > 69.5 µM (inactive)
